Data on two molecules can be found in patent US6852707B1, “Remedies for hyperammonemia” (Suntory Limited, priority 1998, dated 2005).

For series [1] the following is noted: use against hyperammonemia; cited from earlier work.
For series [2] the following is noted: gastric acid, digestive enzymes (Okazaki et al. 1991, 1992); cited from earlier work.
In series [3] the test system is rats feeding on high-protein diet. The series is described as follows: Effects of xylobiose on rats feeding on high-protein diet (Example 2). It counts as in vivo, rat. How it is done:
SD Male rats in a growth stage (15 heads) were fed on a high-protein feed (containing 50% casein) and divided in three groups; the first group consisting of 5 rats were administered 0.5% xylobiose; the second group also consisting of 5 rats were administered 1.0% xylobiose; the third was a control group consisting of 5 rats which were administered distilled water; the animals were let to drink these liquids ad libitum for 3 weeks. Throughout the test period, there were no effects on the amounts of feed and water taken by the rats and the increase in their body weight. The cumulative uptake was 4.7±0.2 g for 0.5% xylobiose and 7.5±0.6 g for 1.0% xylobiose; the daily uptake by the two groups was 0.24 g and 0.37 g, respectively.
At the end of the test, blood was sampled from the rats and the blood ammonia level was measured.

Each structure is given as a SMILES string.

As to `NC[C@@H]1O[C@H](O[C@H]2[C@@H](O)[C@H](O[C@@H]3[C@@H](O)[C@H](N)C[C@H](N)[C@H]3O[C@H]3O[C@H](CN)[C@@H](O)[C@H](O)[C@H]3N)O[C@@H]2CO)[C@H](N)[C@@H](O)[C@@H]1O` [neomycin], in series [1], the documented side effects result is “renal disorder and deafness”.
For the molecule `OC1OC[C@@H](O[C@@H]2OC[C@@H](O)[C@H](O)[C@H]2O)[C@H](O)[C@H]1O` (some centres unmarked) [xylobiose], in series [2], the “stability in the digestive tract” value is given as “can reach the large intestine without being decomposed with gastric acid or digestive enzymes”. The “effects on amounts of feed and water taken and increase in body weight” value in series [3] (0.5% and 1.0% xylobiose, throughout the 3-week test period) is on record as “no effects”. Further, the “blood ammonia level versus control group” value is on record as “lower than the value for the control group” in series [3] (0.5% xylobiose in drinking water ad libitum for 3 weeks) and “significantly low” in series [3] (1.0% xylobiose in drinking water ad libitum for 3 weeks, p<0.05).
